Assay results from patent publication US20020035061A1, “COMPOSITIONS AND METHODS FOR TREATING INFECTIONS USING CATIONIC PEPTIDES ALONE OR IN COMBINATION WITH ANTIBIOTICS” (priority 1996, published 2002).

Test system: bacterial isolates
Experiment: microbe, parasite or virus in culture
Assay type: cell-based

## KKWWRRALQGLKTAGPAIQSVLNK [MBI 21A2]
1. Amikacin, A. baumannii ABI001
  Peptide MIC Alone: 8 µg/mL
1. Amikacin, A. baumannii ABI003
  Peptide MIC Alone: 8 µg/mL
1. Amikacin, E. faecalis EFS008
  Peptide MIC Alone: >128 µg/mL
1. Amikacin, E. faecium EFM004
  Peptide MIC Alone: >128 µg/mL
1. Amikacin, P. aeruginosa PA022
  Peptide MIC Alone: 8 µg/mL
1. Amikacin, S. aureus SA025 MRSA
  Peptide MIC Alone: 2 µg/mL
1. Amikacin, S. epidermidis SE003
  Peptide MIC Alone: >128 µg/mL
1. Amikacin, S. maltophilia SMA018
  Peptide MIC Alone: 16 µg/mL
1. Amikacin, S. maltophilia SMA022
  Peptide MIC Alone: >128 µg/mL
3. Ciprofloxacin, P. aeruginosa PA4
  Peptide MIC Alone: >128 µg/mL
3. Ciprofloxacin, P. aeruginosa PA41
  Peptide MIC Alone: 64 µg/mL
3. Ciprofloxacin, S. aureus SA25
  Peptide MIC Alone: 16 µg/mL
3. Ciprofloxacin, S. aureus SA93
  Peptide MIC Alone: 16 µg/mL
4. Gentamicin, A. baumannii ABI002
  Peptide MIC Alone: 8 µg/mL
4. Gentamicin, P. aeruginosa PA022
  Peptide MIC Alone: 8 µg/mL
4. Gentamicin, S. aureus SA025 MRSA
  Peptide MIC Alone: 8 µg/mL
4. Gentamicin, S. maltophilia SMA019
  Peptide MIC Alone: 16 µg/mL
4. Gentamicin, S. maltophilia SMA020
  Peptide MIC Alone: 16 µg/mL
4. Gentamicin, S. maltophilia SMA021
  Peptide MIC Alone: 16 µg/mL
A. baumannii ABI001
  Amikacin MIC + Peptide: 32 µg/mL
  Peptide MIC + Amikacin: 0.125 µg/mL
A. baumannii ABI002
  Gentamicin MIC + Peptide: 16 µg/mL
  Peptide MIC + Gentamicin: 0.5 µg/mL
A. baumannii ABI003
  Amikacin MIC + Peptide: 8 µg/mL
  Peptide MIC + Amikacin: 4 µg/mL
E. coli 1
  Peptide MIC + Piperacillin: 2 µg/mL
  Piperacillin MIC + Peptide: 8 µg/mL
E. coli 1, Piperacillin section
  Peptide MIC Alone: 4 µg/mL
E. faecalis EFS008
  Amikacin MIC + Peptide: 32 µg/mL
  Peptide MIC + Amikacin: 0.125 µg/mL
E. faecium EFM004
  Amikacin MIC + Peptide: 64 µg/mL
  Peptide MIC + Amikacin: 16 µg/mL
H. influenzae 1
  Peptide MIC + Piperacillin: 64 µg/mL
  Piperacillin MIC + Peptide: 4 µg/mL
H. influenzae 1, Piperacillin section
  Peptide MIC Alone: >128 µg/mL
H. influenzae 2
  Peptide MIC + Piperacillin: 32 µg/mL
  Piperacillin MIC + Peptide: 32 µg/mL
H. influenzae 2, Piperacillin section
  Peptide MIC Alone: >128 µg/mL
P. aeruginosa 23
  Peptide MIC + Piperacillin: 16 µg/mL
  Piperacillin MIC + Peptide: 8 µg/mL
P. aeruginosa 23, Piperacillin section
  Peptide MIC Alone: >128 µg/mL
P. aeruginosa PA4
  Ciprofloxacin MIC + Peptide: 0.125 µg/mL
  Peptide MIC + Ciprofloxacin: 64 µg/mL
P. aeruginosa PA022
  Amikacin MIC + Peptide: 16 µg/mL
  Gentamicin MIC + Peptide: 8 µg/mL
  Peptide MIC + Amikacin: 2 µg/mL
  Peptide MIC + Gentamicin: 2 µg/mL
P. aeruginosa PA41
  Ciprofloxacin MIC + Peptide: 1 µg/mL
  Peptide MIC + Ciprofloxacin: 16 µg/mL
S. aureus 19 MRSA
  Peptide MIC + Piperacillin: 2 µg/mL
  Piperacillin MIC + Peptide: 64 µg/mL
S. aureus 19 MRSA, Piperacillin section
  Peptide MIC Alone: >128 µg/mL
S. aureus SA25
  Ciprofloxacin MIC + Peptide: 0.5 µg/mL
  Peptide MIC + Ciprofloxacin: 4 µg/mL
S. aureus SA025 MRSA
  Amikacin MIC + Peptide: 2 µg/mL
  Gentamicin MIC + Peptide: 32 µg/mL
  Peptide MIC + Amikacin: 1 µg/mL
  Peptide MIC + Gentamicin: 1 µg/mL
S. aureus SA93
  Ciprofloxacin MIC + Peptide: 8 µg/mL
  Peptide MIC + Ciprofloxacin: 2 µg/mL
S. aureus SB2MRSA
  Peptide MIC + Piperacillin: 2 µg/mL
  Piperacillin MIC + Peptide: 64 µg/mL
S. aureus SB2MRSA, Piperacillin section
  Peptide MIC Alone: 32 µg/mL
S. epidermidis SE003
  Amikacin MIC + Peptide: 4 µg/mL
  Peptide MIC + Amikacin: 64 µg/mL
S. maltophilia 6
  Peptide MIC + Piperacillin: 16 µg/mL
  Piperacillin MIC + Peptide: 64 µg/mL
S. maltophilia 6, Piperacillin section
  Peptide MIC Alone: 128 µg/mL
S. maltophilia 14
  Peptide MIC + Piperacillin: 16 µg/mL
  Piperacillin MIC + Peptide: 4 µg/mL
S. maltophilia 14, Piperacillin section
  Peptide MIC Alone: 32 µg/mL
S. maltophilia SMA018
  Amikacin MIC + Peptide: 64 µg/mL
  Peptide MIC + Amikacin: 4 µg/mL
S. maltophilia SMA019
  Gentamicin MIC + Peptide: 16 µg/mL
  Peptide MIC + Gentamicin: 4 µg/mL
S. maltophilia SMA020
  Gentamicin MIC + Peptide: 16 µg/mL
  Peptide MIC + Gentamicin: 4 µg/mL
S. maltophilia SMA021
  Gentamicin MIC + Peptide: 16 µg/mL
  Peptide MIC + Gentamicin: 4 µg/mL
S. maltophilia SMA022
  Amikacin MIC + Peptide: 32 µg/mL
  Peptide MIC + Amikacin: 32 µg/mL
S. marcescens 1
  Peptide MIC + Piperacillin: 4 µg/mL
  Piperacillin MIC + Peptide: 16 µg/mL
S. marcescens 1, Piperacillin section
  Peptide MIC Alone: >128 µg/mL
Peptide + Amikacin, A. baumannii ABI001
  FIC: 0.52
Peptide + Amikacin, A. baumannii ABI003
  FIC: 0.52
Peptide + Amikacin, E. faecalis EFS008
  FIC: 0.50
Peptide + Amikacin, E. faecium EFM004
  FIC: 0.56
Peptide + Amikacin, P. aeruginosa PA022
  FIC: 0.50
Peptide + Amikacin, S. aureus SA025 MRSA
  FIC: 0.56
Peptide + Amikacin, S. epidermidis SE003
  FIC: 0.38
Peptide + Amikacin, S. maltophilia SMA018
  FIC: 0.50
Peptide + Amikacin, S. maltophilia SMA022
  FIC: 0.25
Peptide + Ciprofloxacin, P. aeruginosa PA4
  FIC: 0.50
Peptide + Ciprofloxacin, P. aeruginosa PA41
  FIC: 0.50
Peptide + Ciprofloxacin, S. aureus SA25
  FIC: 0.50
Peptide + Ciprofloxacin, S. aureus SA93
  FIC: 0.38
Peptide + Gentamicin, A. baumannii ABI002
  FIC: 0.56
Peptide + Gentamicin, P. aeruginosa PA022
  FIC: 0.50
Peptide + Gentamicin, S. aureus SA025 MRSA
  FIC: 0.63
Peptide + Gentamicin, S. maltophilia SMA019
  FIC: 0.50
Peptide + Gentamicin, S. maltophilia SMA020
  FIC: 0.50
Peptide + Gentamicin, S. maltophilia SMA021
  FIC: 0.50
Peptide + Piperacillin, E. coli 1
  FIC: 0.53
Peptide + Piperacillin, H. influenzae 1
  FIC: 0.31
Peptide + Piperacillin, H. influenzae 2
  FIC: 0.38
Peptide + Piperacillin, P. aeruginosa 23
  FIC: 0.19
Peptide + Piperacillin, S. aureus 19 MRSA
  FIC: 0.51
Peptide + Piperacillin, S. aureus SB2MRSA
  FIC: 0.56
Peptide + Piperacillin, S. maltophilia 6
  FIC: 0.38
Peptide + Piperacillin, S. maltophilia 14
  FIC: 0.53
Peptide + Piperacillin, S. marcescens 1
  FIC: 0.27
